In data set [1] the test system is A549 (human lung cancer cells). Kind of data set: Anticancer activity, WST-8 viable cell assay, A549. The format is cell-based. The note with it: 48 hours culture, mean of three experiments, read-out: IC50 (50% cell growth inhibitory concentration). How it is done:
(§1) As a control, cisplatin was tested in the same way.
(§2) A549 (human lung cancer cells), NCI-H460 (human lung cancer cells), MKN45 (human gastric cancer cells), NCI-N87 (human gastric cancer cells), A2780 (human ovarian cancer cells), A2780cis (human ovarian cancer cells, cisplatin-resistant cells) were used as cancer cells, and cultured in Roswell Park Memorial Institute medium (RPMI1640) supplemented with 10 volume % fetal bovine serum and 100 Units/mL penicillin and 100 μg/mL streptomycin under 5 volume % carbon dioxide atmosphere by wet incubation at 37° C.
(§3) Cells were washed with phosphate buffered saline (PBS), the cell count was calculated, and then 5×10^4 cells/ml suspension was prepared using the same medium. The suspension was added to a sterile 96-well microplate at a density of 2500 cells/well.
(§4) Thereafter, viable cell counts were evaluated by WST-8 assay. In other words, a solution of water-soluble tetrazolium salt WST-8 was added, and then the cells were cultured in an incubator for 1 hour. Absorbance at 450 nm of water-soluble formazan generated by enzymatic activity of mitochondria in cells was measured with a microplate reader (Spectra Max PLUS; Molecular Devices). This was evaluated as viable cell counts, and 50% cell growth inhibitory concentration (IC50) was calculated. It should be noted that the mean of the values of three experiments performed in the same way was adopted for the calculation of IC50 value.
In general terms: Tetrazolium dyes change colour on reduction, which living cells bring about.

The subject of data set [2] is NCI-H460 (human lung cancer cells). As to the kind of experiment: Anticancer activity, WST-8 viable cell assay, NCI-H460. The format is cell-based. To be noted: 48 hours culture, mean of three experiments, read-out: IC50 (50% cell growth inhibitory concentration). The protocol: as §1, §2, §3, §4
Data set [3] concerns MKN45 (human gastric cancer cells). As to the kind of experiment: Anticancer activity, WST-8 viable cell assay, MKN45. The format is cell-based. The note with it: 48 hours culture, mean of three experiments, read-out: IC50 (50% cell growth inhibitory concentration). How it is done: as §1, §2, §3, §4
In data set [4] the test system is NCI-N87 (human gastric cancer cells). Kind of data set: Anticancer activity, WST-8 viable cell assay, NCI-N87. The format is cell-based. The note with it: 48 hours culture, mean of three experiments, read-out: IC50 (50% cell growth inhibitory concentration). The protocol:
as §1, §2, §3, §4

Data set [5] concerns A2780 (human ovarian cancer cells). As to the kind of experiment: Anticancer activity, WST-8 viable cell assay, A2780. The class given is cell-based. To be noted: 48 hours culture, mean of three experiments, read-out: IC50 (50% cell growth inhibitory concentration). The protocol: as §1, §2, §3, §4
For data set [6], the system named is A2780cis (human ovarian cancer cells, cisplatin-resistant cells). As to the kind of experiment: Anticancer activity, WST-8 viable cell assay, A2780cis. The class given is cell-based. To be noted: 48 hours culture, mean of three experiments, read-out: IC50 (50% cell growth inhibitory concentration). The protocol:
as §1, §2, §3, §4

A short description of data set [7]: Solubility test in aqueous surfactant solution (HPLC). The note with it: 150 μL surfactant (Tween 80:propylene glycol 2:1) + 850 μL 5% by mass aqueous glucose solution.
Procedure: The solubility was determined by the following HPLC analysis.
For the HPLC analyzer, Prominence HPLC system (LC-20AD, Shimadzu Corporation) was used. For the detector, UV detector SPD-20A (Shimadzu Corporation, detection wavelength 249 nm) was used, and for the column, XR-ODS (3 mm i.d.×100 mm, particle diameter 2.2 μm) manufactured by Shimadzu Corporation was used. The mobile phase was methanol:water:TFA=90:10:0.05 (v/v), the column temperature was 40° C., and the flow rate was 0.5 mL/min.
Each of the weighed samples was placed in 150 μL of surfactants, and the mixture was stirred sufficiently. Then, 850 μL of 5% by mass aqueous glucose solution was added, and the mixture was further stirred at room temperature (25° C.). This solution was passed through a 0.2 μm membrane filter, and the filtrate was diluted 50-fold by volume with methanol:water (9:1) to obtain a preparation solution for HPLC analysis.
The prepared samples were transferred to vials, and set in an autosampler. The analysis was performed by injecting each sample by 1 μL.
Based on the relationship between the weight of the weighed sample and the area of the peak in the obtained chromatogram, the solubility of the phosphine transition metal complex was evaluated.

For the molecule `N.N.[Cl][Pt][Cl]` [Cisplatin, cisplatin, reference compound], the IC50 came out at 6000 nM in data set [1]; 3300 nM in data set [2]; 5200 nM in data set [3]; 42000 nM in data set [4]; 2800 nM in data set [5]; 28000 nM in data set [6].
With `CP(c1nc2ccccc2nc1P(C)C(C)(C)C)C(C)(C)C.CP(c1nc2ccccc2nc1P(C)C(C)(C)C)C(C)(C)C.[Au+].[Cl-]` (stereo not shown) [Comparative Example 1, bis(2,3-bis(tert-butylmethylphosphino)quinoxaline)gold(I) chloride], the “Solubility (25° C.)” value in data set [7] came to 25.5 mg/mL.
For the molecule `CP(c1ccccc1P(C)C(C)(C)C)C(C)(C)C.CP(c1ccccc1P(C)C(C)(C)C)C(C)(C)C.[Au+].[Cl-]` [Example 2, bis[(S,S)-1,2-bis(t-butylmethylphosphino)benzene]gold(I) chloride], the IC50 in data set [1] was found to be 580 nM; in data set [2], 690 nM; in data set [3], 530 nM; in data set [4] it was 2100 nM; in data set [5], 1100 nM; in data set [6], 560 nM.
On to “bis[(R,R)-1,2-bis(t-butylmethylphosphino)benzene]gold(I) chloride [Example 1]”, for which the IC50 is 66 nM in data set [1]; 250 nM in data set [2]; 250 nM in data set [3]; 1400 nM in data set [4]; 280 nM in data set [5]; 95 nM in data set [6].

The values above are taken from patent US11180516B2, “Phosphine transition metal complex, method for producing same, and anticancer agent” (Nippon Chemical Industrial Co., Ltd., priority 2018, dated 2021).
